# Laboratory results reported in article PMC11436758, “Computer-aided drug design to generate a unique antibiotic family” (Nature Communications, 2024).
# pIC50: −log10 of the molar value. Several values for one entry are separate records, joined by “and”; a condition that tells them apart may be missing. Identical values can stand only once.
# Legend:
# [1] = system: wild type (K12) E. coli; assay: MIC, wild type E. coli; format: cell-based; details: Escherichia coli
# Text: The outer membrane of Gram-negative bacteria is a robust permeability barrier that prevents many antibiotics from entering Gram-negative cells[46],[47]. The outer leaflet of this outer membrane is primarily composed of the unique lipid lipopolysaccharide (LPS). Strains of E. coli with point mutations in genes coding for LPS biosynthetic enzymes have been isolated that enable some antibiotics to effectively pass through the outer membrane enabling activity against these strains of E. coli[48]–[54]; one such strain is E. coli (D22) which contains a point mutation in the lpxC gene.
# The medium employed for the assay was Mueller Hinton II Broth (MHB II; Becton-Dickinson, Sparks, MD, USA). Agar plates used for the organisms were trypticase soy agar plus 5% sheep blood (BD; Sparks, MD, USA). MIC assay plates were prepared using the CLSI broth microdilution procedure. Automated liquid handlers (Multidrop 384, Biomek 2000 and Biomek FX) were used to conduct serial dilutions and liquid transfers. A standardized inoculum of each organism was prepared per CLSI methods. Suspensions were prepared to equal a 0.5 McFarland standard, followed by a 1:20 dilution in test media. […] The microplates were viewed from the bottom using a plate viewer and the MIC was read. The MIC was recorded as the lowest concentration of drug that inhibited visible growth of the organism. […]
# [2] = target: T1, wild-type AcpS (Escherichia coli, UniProt P24224); assay: Inhibition of purified wild-type AcpS by DNM0547; format: biochemical, E. coli; details: for AcpS rate nM/min, Mean / AcpS rate: Suppl Fig 3, [AcpS_WT] 5 nM; for AcpS rate: replicates
# T1 construct: 6x-His (C); made in house
# T1 sequence (P24224 whole entry): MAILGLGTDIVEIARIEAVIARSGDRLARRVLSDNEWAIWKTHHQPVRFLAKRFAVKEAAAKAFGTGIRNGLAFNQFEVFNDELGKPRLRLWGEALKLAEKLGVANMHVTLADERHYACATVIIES
# [3] = target: T2, AcpS^N82/81A (Escherichia coli, UniProt P24224, N81A); assay: Inhibition of purified AcpS site-directed mutant by DNM0547; format: biochemical, E. coli; details: for AcpS rate nM/min, Mean / AcpS rate: Suppl Fig 3, [AcpS_N81A] 5nM; for AcpS rate: replicates
# T2 construct: 6x-His (C); made in house
# T2 sequence (P24224 whole entry N81A): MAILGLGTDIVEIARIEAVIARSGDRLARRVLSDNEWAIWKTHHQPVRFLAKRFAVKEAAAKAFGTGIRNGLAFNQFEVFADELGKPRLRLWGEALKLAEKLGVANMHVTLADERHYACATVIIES
# [4] = system: MRSA MMX 2119 (NRS23, USA100) and MRSA MMX 4675 (ATCC BAA-1556, USA300); assay: Time kill; format: cell-based, S. aureus; details: for drop in surviving bacteria: two strains of MRSA
# Protocol: We also sought to determine if DNM0547 was bacteriostatic or bactericidal. Time kill experiments were carried out using increasing doses of DNM0547 against two different strains of MRSA.
# Supplementary Figure 5. Time kill of DNM0547 versus S. aureus. The time kill of DNM0547
# 4675 (ATCC BAA-1556, USA300) were determined. Representative experiments are shown. […]
smiles,measurement,setting,value
CC(C)c1cc(Cl)ccc1-c1cc(-c2nnn[nH]2)c(-c2ccc(Cl)cc2C(C)C)s1 [DNM0547],MIC,[1],256 µg/mL
same,pIC50,[2],5.29
same,"AcpS rate nM/min, Mean",[2]; Drug Conc 1 uM,40.51 nM/min
same,AcpS rate,[2]; Drug Conc 1 uM,41.16 nM/min and 37.27 nM/min and 43.10 nM/min
same,"AcpS rate nM/min, Mean",[2]; Drug Conc 2 uM,36.72 nM/min
same,AcpS rate,[2]; Drug Conc 2 uM,35.90 nM/min and 37.65 nM/min and 36.61 nM/min
same,"AcpS rate nM/min, Mean",[2]; Drug Conc 4 uM,24.24 nM/min
same,AcpS rate,[2]; Drug Conc 4 uM,27.20 nM/min and 22.45 nM/min and 23.08 nM/min
same,"AcpS rate nM/min, Mean",[2]; Drug Conc 8 uM,14.81 nM/min
same,AcpS rate,[2]; Drug Conc 8 uM,14.57 nM/min and 15.17 nM/min and 14.69 nM/min
same,"AcpS rate nM/min, Mean",[2]; Drug Conc 16 uM,6.58 nM/min
same,AcpS rate,[2]; Drug Conc 16 uM,5.73 nM/min and 8.26 nM/min and 5.76 nM/min
same,"AcpS rate nM/min, Mean",[2]; Drug Conc 32 uM,2.47 nM/min
same,AcpS rate,[2]; Drug Conc 32 uM,2.50 nM/min and 2.59 nM/min and 2.33 nM/min
same,"AcpS rate nM/min, Mean",[2]; Drug Conc 64 uM,1.94 nM/min
same,AcpS rate,[2]; Drug Conc 64 uM,1.85 nM/min and 1.95 nM/min and 2.00 nM/min
same,"AcpS rate nM/min, Mean",[2]; Drug Conc 128 uM,1.59 nM/min
same,AcpS rate,[2]; Drug Conc 128 uM,1.43 nM/min and 1.51 nM/min and 1.82 nM/min
same,remaining activity at 1 µM,"[2]; read-out: % of untreated, Suppl Fig 3, [AcpS_WT] 5 nM, Drug Conc 1 uM, replicates",99.1%
same,remaining activity at 2 µM,"[2]; read-out: % of untreated, Suppl Fig 3, [AcpS_WT] 5 nM, Drug Conc 2 uM, replicates",86.4%
same,remaining activity at 4 µM,"[2]; read-out: % of untreated, Suppl Fig 3, [AcpS_WT] 5 nM, Drug Conc 4 uM, replicates",65.5%
same,remaining activity at 8 µM,"[2]; read-out: % of untreated, Suppl Fig 3, [AcpS_WT] 5 nM, Drug Conc 8 uM, replicates",35.1%
same,remaining activity at 16 µM,"[2]; read-out: % of untreated, Suppl Fig 3, [AcpS_WT] 5 nM, Drug Conc 16 uM, replicates",13.8%
same,remaining activity at 32 µM,"[2]; read-out: % of untreated, Suppl Fig 3, [AcpS_WT] 5 nM, Drug Conc 32 uM, replicates",6.02%
same,remaining activity at 64 µM,"[2]; read-out: % of untreated, Suppl Fig 3, [AcpS_WT] 5 nM, Drug Conc 64 uM, replicates",4.46%
same,remaining activity at 128 µM,"[2]; read-out: % of untreated, Suppl Fig 3, [AcpS_WT] 5 nM, Drug Conc 128 uM, replicates",3.45%
same,pIC50,[3],5.30
same,"AcpS rate nM/min, Mean",[3]; Drug Conc 1 uM,7.81 nM/min
same,AcpS rate,[3]; Drug Conc 1 uM,7.96 nM/min and 7.81 nM/min and 7.64 nM/min
same,"AcpS rate nM/min, Mean",[3]; Drug Conc 2 uM,6.86 nM/min
same,AcpS rate,[3]; Drug Conc 2 uM,6.91 nM/min and 7.01 nM/min and 6.66 nM/min
same,"AcpS rate nM/min, Mean",[3]; Drug Conc 4 uM,4.72 nM/min
same,AcpS rate,[3]; Drug Conc 4 uM,4.74 nM/min and 4.76 nM/min and 4.66 nM/min
same,"AcpS rate nM/min, Mean",[3]; Drug Conc 8 uM,3.23 nM/min
same,AcpS rate,[3]; Drug Conc 8 uM,2.93 nM/min and 3.30 nM/min and 3.44 nM/min
same,"AcpS rate nM/min, Mean",[3]; Drug Conc 16 uM,2.83 nM/min
same,AcpS rate,[3]; Drug Conc 16 uM,3.20 nM/min and 2.39 nM/min and 2.90 nM/min
same,"AcpS rate nM/min, Mean",[3]; Drug Conc 32 uM,1.69 nM/min
same,AcpS rate,[3]; Drug Conc 32 uM,1.65 nM/min and 1.74 nM/min and 1.68 nM/min
same,"AcpS rate nM/min, Mean",[3]; Drug Conc 64 uM,1.60 nM/min
same,AcpS rate,[3]; Drug Conc 64 uM,1.52 nM/min and 1.63 nM/min and 1.65 nM/min
same,"AcpS rate nM/min, Mean",[3]; Drug Conc 128 uM,1.34 nM/min
same,AcpS rate,[3]; Drug Conc 128 uM,1.38 nM/min and 1.44 nM/min and 1.20 nM/min
same,remaining activity at 1 µM,"[3]; read-out: % of untreated, Suppl Fig 3, [AcpS_N81A] 5nM, Drug Conc 1 uM, replicates",105%
same,remaining activity at 2 µM,"[3]; read-out: % of untreated, Suppl Fig 3, [AcpS_N81A] 5nM, Drug Conc 2 uM, replicates",90.9%
same,remaining activity at 4 µM,"[3]; read-out: % of untreated, Suppl Fig 3, [AcpS_N81A] 5nM, Drug Conc 4 uM, replicates",62.4%
same,remaining activity at 8 µM,"[3]; read-out: % of untreated, Suppl Fig 3, [AcpS_N81A] 5nM, Drug Conc 8 uM, replicates",38.5%
same,remaining activity at 16 µM,"[3]; read-out: % of untreated, Suppl Fig 3, [AcpS_N81A] 5nM, Drug Conc 16 uM, replicates",42.1%
same,remaining activity at 32 µM,"[3]; read-out: % of untreated, Suppl Fig 3, [AcpS_N81A] 5nM, Drug Conc 32 uM, replicates",21.7%
same,remaining activity at 64 µM,"[3]; read-out: % of untreated, Suppl Fig 3, [AcpS_N81A] 5nM, Drug Conc 64 uM, replicates",20%
same,remaining activity at 128 µM,"[3]; read-out: % of untreated, Suppl Fig 3, [AcpS_N81A] 5nM, Drug Conc 128 uM, replicates",18.1%
same,drop in surviving bacteria,"[4]; 2x MIC, at 2 h and 6 h",three
same,drop in surviving bacteria,"[4]; 4x and 8x MIC, at 2 h",three
same,CFU/mL,"[4]; Suppl Fig 5a, S. aureus MMX 2119, 2X, 0 hr",7.70E+05 CFU/mL
same,CFU/mL,"[4]; Suppl Fig 5a, S. aureus MMX 2119, 2X, 2 hr",6.00E+02 CFU/mL
same,CFU/mL,"[4]; Suppl Fig 5a, S. aureus MMX 2119, 2X, 6 hr",3.00E+02 CFU/mL
same,CFU/mL,"[4]; Suppl Fig 5a, S. aureus MMX 2119, 2X, 24 hr",LOD
same,CFU/mL,"[4]; Suppl Fig 5a, S. aureus MMX 2119, 4X, 0 hr",7.70E+05 CFU/mL
same,CFU/mL,"[4]; Suppl Fig 5a, S. aureus MMX 2119, 4X, 2 hr",4.50E+02 CFU/mL
same,CFU/mL,"[4]; Suppl Fig 5a, S. aureus MMX 2119, 4X, 6 hr",1.50E+02 CFU/mL
same,CFU/mL,"[4]; Suppl Fig 5a, S. aureus MMX 2119, 4X, 24 hr",LOD
same,CFU/mL,"[4]; Suppl Fig 5a, S. aureus MMX 2119, 8X, 0 hr",7.70E+05 CFU/mL
same,CFU/mL,"[4]; Suppl Fig 5a, S. aureus MMX 2119, 8X, 2 hr",LOD
same,CFU/mL,"[4]; Suppl Fig 5a, S. aureus MMX 2119, 8X, 6 hr",LOD
same,CFU/mL,"[4]; Suppl Fig 5a, S. aureus MMX 2119, 8X, 24 hr",LOD
same,CFU/mL,"[4]; Suppl Fig 5b, S. aureus MMX 4657, 2X, 0 hr",1.01E+06 CFU/mL
same,CFU/mL,"[4]; Suppl Fig 5b, S. aureus MMX 4657, 2X, 2 hr",1.05E+03 CFU/mL
same,CFU/mL,"[4]; Suppl Fig 5b, S. aureus MMX 4657, 2X, 6 hr",LOD
same,CFU/mL,"[4]; Suppl Fig 5b, S. aureus MMX 4657, 2X, 24 hr",LOD
same,CFU/mL,"[4]; Suppl Fig 5b, S. aureus MMX 4657, 4X, 0 hr",1.01E+06 CFU/mL
same,CFU/mL,"[4]; Suppl Fig 5b, S. aureus MMX 4657, 4X, 2 hr",2.50E+02 CFU/mL
same,CFU/mL,"[4]; Suppl Fig 5b, S. aureus MMX 4657, 4X, 6 hr",LOD
same,CFU/mL,"[4]; Suppl Fig 5b, S. aureus MMX 4657, 4X, 24 hr",LOD
same,CFU/mL,"[4]; Suppl Fig 5b, S. aureus MMX 4657, 8X, 0 hr",1.01E+06 CFU/mL
same,CFU/mL,"[4]; Suppl Fig 5b, S. aureus MMX 4657, 8X, 2 hr",LOD
same,CFU/mL,"[4]; Suppl Fig 5b, S. aureus MMX 4657, 8X, 6 hr",LOD
same,CFU/mL,"[4]; Suppl Fig 5b, S. aureus MMX 4657, 8X, 24 hr",LOD
